This test relates to MEF cells. As to conditions: MEF cells loaded with probe 10 ug/ml, 12 h; different concentrations, added at 30 min, FIG. 6. As for the experimental part:
The plate was then measured on a Victor 2 reader as described in Example 4. Initially it was monitored for ˜30 min to reach O2 and temperature equilibrium and obtain basal signals, then quickly withdrawn from the reader, compounds were added to the cells (10 ul of 10× stock solution in each well) and monitoring was resumed. Measured TR-F intensity signals for each sample well were converted into phosphorescence lifetime (t) values and plotted. Control samples and repetitive additions were incorporated as appropriate.

For `N#CC(C#N)=NNc1ccc(OC(F)(F)F)cc1` [FCCP], the “response of probe phosphorescence lifetime to stimulation” value is on record as “Increases in probe lifetime”.

Source of the values: US10508992B2, “Method and probe for monitoring oxygen status in live mammalian cells” (University College Cork, National University of Ir Cork, priority 2010, dated 2019).
